# Measurements: patent publication US20140371159A1, “IN VITRO METHOD FOR MODIFYING THE DEPLETION PROFILE OF TREG CELLS PRESENT IN A TOTAL SPLENOCYTE POPULATION OF A BIOLOGICAL SAMPLE BY MEANS OF THE ISOLATION, CULTURING AND EXPOSURE THEREOF TO AN ATP AND POLYMIXIN B MEDIUM” (Universidad de Santiago de Chile, priority 2011, published 2014)
# “Also recorded” adds a separate entry of the source. Where two headings read alike, the source gives them in different places.
# Legend:
# [1] = system: P2X7 receptor (CD4+CD25+ population); test: Effect of P2X7 antagonists on PMB/ATP-induced depletion of CD4+CD25+ population in splenocytes (Example 2); format: cell-based, mice; conditions: for inhibition of the effect induced by ATP 100 μM over CD4+CD25+ population: BBG 100 nM (FIG. 5), A740003 (FIG. 6); for inhibition of the effect of low dose PMB and ATP over CD4+CD25+ populations: PPADS 10 μM, BBG 100 nM, PMB 1 μg/mL, ATP 60 μM and both, FIG. 4
# Procedure: (§1) To determine the in vitro effect of polymyxin and other receptor modulators: P2X7, spleen from mice b6 and/or balbc were extracted, and splenocytes were isolated using repeated centrifugation, eliminating red cells for treatment with a lysis buffer ACK. Generally, the experiments were performed in cells obtained from animals b6. The obtained splenocytes are cultured in RPMI Medium supplemented with antibiotics and serum at 10%. Cells remain in rest for 2 hours at a concentration of 1 million cells/ml, after the same are breeding and incubated with purinergic agonists dissolved in PBS (ATP 0.1 μM-1,000 μM and NAD 0.01-1,000 μM), modulators of PMB receptor (0.001 up to 1,000 μg/m1) and gramicidine (0.001 up to 100 mg/ml). In the case of antagonists, these are used at concentrations which have been described as being more specific to P2X7 than other receptors.
# Splenocytes were treated with PMB (Sigma-Aldrich, St Louis, Mont., USA) to different times and concentrations in presence of two modulators negative of the P2X7, PPADS activity and specific antagonist of P2X7 Brilliant Blue G (BBG) (see Brilliant Blue G Selectively Blocks ATP-Gated Rat P2X7 receptors. JIANG, 2000. 12). Cells were kept for 24 hrs in conditions of cell culture. Subsequently cells were recollected, blotted and analyzed by flow cytometry.
# [2] = system: CD4+, CD8+ lymphocyte populations; test: In vitro effect on CD8 and CD4 populations in total mouse splenocyte population, flow cytometry (Example 1); format: cell-based, mice C57/BL6
# Procedure: To determine the in vitro effect of polymyxin and other receptor modulators: P2X7, spleen from mice b6 and/or balbc were extracted, and splenocytes were isolated using repeated centrifugation, eliminating red cells for treatment with a lysis buffer ACK. Generally, the experiments were performed in cells obtained from animals b6. The obtained splenocytes are cultured in RPMI Medium supplemented with antibiotics and serum at 10%. […]
# Cells are cultured for different time under a RPMI culture environment supplemented with antibiotics (penicillin, streptomycin and fungizone) with serum fetal bovine serum at 10% in a culture stove at 37° C. and 5% CO2, which will be named as standard conditions. […] Samples were analyzed in a cytometer of low and analized to different subpopulations to different evaluated times. […]
# Splenocytes 2×10^6 cells/ml obtained from spleen of mice C57/BL6 (6 weeks old) were cutured by 1 hour in plates 24 wells at 37° C., 5% CO2. […] After the incubation cells were re-suspended in buffer IF and analyzed by flow cytometry in the equipment FACSCantoll (Beckett Dickinson, Mississauga, Ontario, USA). […]
# [3] = system: CD4+CD25+FOXP3+ lymphocyte populations (Treg); test: In vitro effect on Treg cells in total mouse splenocyte population, flow cytometry (Example 1); format: cell-based, mice C57/BL6; conditions: for modification of the ATP-induced effect on Treg cells: ATP response curve, FIGS. 3A and 3B
# Procedure: as §1
# Cells are cultured for different time under a RPMI culture environment supplemented with antibiotics (penicillin, streptomycin and fungizone) with serum fetal bovine serum at 10% in a culture stove at 37° C. and 5% CO2, which will be named as standard conditions. To evaluate the effect of the treatment over regulating T lymphocytes, samples were taken for the treatments (independients) at 24, 48 and 72 hours post challenge. The recovered lymphocytes were centrifuged at 800 g and processed to be marked with antibodies against CD4, CD8, CD25. […] Samples were analyzed in a cytometer of low and analized to different subpopulations to different evaluated times. The results obtained herein allow determining that PMB in vitro under the described conditions, selectively deplexing to splenocyte regulating T lymphocytes.
# Splenocytes 2×10^6 cells/ml obtained from spleen of mice C57/BL6 (6 weeks old) were cutured by 1 hour in plates 24 wells at 37° C., 5% CO2. Lately, cells were treated with PMB (Sigma-Aldrich, St Louis, Mont., USA) to different times and concentrations (0-24-48 and 72 hours, concentrations from 0.01 a 1,000 μg/ml). The treatments were kept for 24, 48 and 72 h, in which cells were kept into RPMI-1640 medium supplemented at 37° C. 5% CO2. After the treatments cells were harvested in buffer IF (PBS 2% SFB) could without dragging the adherent population. The obtained cells were blocked at 4° C. for 30 min in buffer IF. To determine the CD4+, CD8+y CD4+CD25+FOXP3+ lymphocyte populations, about 10^6 cells to were incubated with Anti-CD8 Ly-2 (BDpharmigen, Mississauga, Ontario, USA) 4° C. for 30 min with constant stirring and CD4+ T lymphocytes and Treg were identified with the kit of marking cells Treg #3 (eBioscience, San Diego, Calif., USA)as the manufacturer protocol. After the incubation cells were re-suspended in buffer IF and analyzed by flow cytometry in the equipment FACSCantoll (Beckett Dickinson, Mississauga, Ontario, USA). The same experiments above described were repeated evaluating the effect of gramicidine, ATP and ATP in presence of two PMB concentrations.
# [4] = system: systemic regulating T lymphocytes in animal spleen; test: In vivo Treg lymphocyte depletion in spleen after subcutaneous injection (Examples 3 and 5); design: species or system mice C57/BL6; conditions: for death of systemic regulating T lymphocytes in spleen, drug alone: day 3 post challenge, PMB up to 400 μg total or ATP up to 50 μmoles, FIGS. 10A-10C
# Procedure: To evaluate the complementary PMB activity in antitumor therapy, first is determined the effect of this over the in vivo regulating T population. To this, animals having 6-15 weeks and different sex were subcutaneously injected with a solution containing PMB alone (between 4 to 400 μg total), ATP (between 0,4 a 40 mg total) or mixture thereof, in ratios which are not affected therebetween, the CD4CD25 foxp3 population. Animals were dead are different post-injection time, spleen was extracted, erythrocytes eliminated and T lymphocytes present evaluated. […] To evaluate the complementary PMB activity in antitumor therapy, cells B16 were cultured under standard conditions in a culture DMEM medium with fetal bovine serum at 10% in a culture stove at 37° C. and 5% CO2. Cells were cultures and submitted to dead induced by deprivation of culture medium for 96 hours, into a culture stove. Cell bodies obtained were collected in sterility conditions and stored at a concentration estimated considering 1 million initial cells/ml. These bodies were prepared together with PMB and ATP inducing a reduction of T reg lymphocytes and injected 3 times each 7 days. After 7 days, once ended the immunization protocol, animals were challenged with 20.000 cells b16 alive obtained from exponential growing culture. Tumor growth was evaluated by hand after the first week daily and measure with a vernier calliper.
# Mice were dead, the spleen was extracted and then marking with α-CD4, αCD25, α-CD8 and α-Foxp3 antibodies were made.
# Subcutaneous injections were made in mice C57/BL6 of 6 weeks old with different concentrations of PMB, ATP or mixing concentrations of both. Mice were dead, the spleen extracted and subsequently markings were made with α-CD4, αCD25, α-CD8 and α-Foxp3 antibodies.
# [5] = system: Melanome murine cells B16; test: Antitumor immune therapy: immunization with B16 apoptotic bodies, then tumor challenge (Example 4); format: in vivo, mice; conditions: for prophylaxis against the development of tumor b16: given with cell bodies; for protection of challenged animals (free of tumor): cell bodies (CA B16) alone or with the additive
# Procedure: To evaluate the complementary PMB activity in antitumor therapy, first is determined the effect of this over the in vivo regulating T population. To this, animals having 6-15 weeks and different sex were subcutaneously injected with a solution containing PMB alone (between 4 to 400 μg total), ATP (between 0,4 a 40 mg total) or mixture thereof, in ratios which are not affected therebetween, the CD4CD25 foxp3 population. Animals were dead are different post-injection time, spleen was extracted, erythrocytes eliminated and T lymphocytes present evaluated. The results obtained herein allow determining that PMB injected deplexing regukating T lymphocytes under a transient way. To evaluate the complementary PMB activity in antitumor therapy, cells B16 were cultured under standard conditions in a culture DMEM medium with fetal bovine serum at 10% in a culture stove at 37° C. and 5% CO2. Cells were cultures and submitted to dead induced by deprivation of culture medium for 96 hours, into a culture stove. Cell bodies obtained were collected in sterility conditions and stored at a concentration estimated considering 1 million initial cells/ml. These bodies were prepared together with PMB and ATP inducing a reduction of T reg lymphocytes and injected 3 times each 7 days. After 7 days, once ended the immunization protocol, animals were challenged with 20.000 cells b16 alive obtained from exponential growing culture. Tumor growth was evaluated by hand after the first week daily and measure with a vernier calliper. The resuts obtained herein allow determining that PMB in vivo plus ATP and with cell bodies act in a prophylactic way increasing the number of animals free of tumor after the challenge with alive b16 cells.
# Mice from 6 to 8 weeks old were treated with apoptotic bodies (CA) derived from Melanome murine cells B16 (2×10^4), with CA B16 plus ATP 500 μM, CA B16 plus PMB 10 mg/mL and with mixtures if the above three, the control was performed with the sterile immunization carrier PBS 1X.
# Immunizations were performed by subcutaneous injection in the right flank in a final volume of 50 μL, at day 0, 7 and 21 of treatment. Day 0 marks the starting of the treatments. In day 28 post injection a tumor challenge was made. To that 10^4 tumor cells alive were injected in the left flank of the individual in a volume of 50 μL in sterile PBS 1X.
# (§2) Mice were daily observed recording activity, weight and aspect according to parameters described by Morton y Griffiths, 1985 (see Morton D B, Griffiths P H. Guidelines on the recognition of pain, distress and discomfort in experimental animals and an hypothesis for assessment. Vet Rec. 1985 Apr. 20; 116(16):431-6). The tumor appearance was recorded and followed up to a tumor volume of 0.6 cm^3, in which animals were euthanized by cervical dislocation.
# [6] = system: CD4+CD25+FOXP3+ lymphocyte populations (human Treg); test: Effect on human Treg lymphocyte populations in PBML from peripheral blood (Example 6); format: cell-based; conditions: 24 h; FIG. 11
# Procedure: PBML 2×10^6 cells/ml obtained from peripheral blood extracted by centrifugation in gradient was cultured under standard conditions. Subsequently cells were treated with PMB (Sigma-Aldrich, St Louis, Mont., USA). The Treatments were kept for 24 h, in which cell remain in RPMI-1640 medium supplemented at 37° C. 5% CO2. After the treatments cells were harvested in buffer IF (PBS 2% SFB) cold. The obtained cells were blocked at 4° C. for 30 min in buffer IF. To determine the CD4+, CD8+ and CD4+CD25+FOXP3+ lymphocyte populations. After incubation cells were resuspended in buffer IF and analyzed by flow cytometry in the FACSCantoll equipment (Beckett Dickinson, Mississauga, Ontario, USA).
# [7] = system: lymphoma EL4 y EL4/ADM, tumor cell lines C1498 y REH; conditions: cited from earlier work
# [8] = Secondary effects on health condition and regular behavior of treated animals; format: in vivo, mice; conditions: effective dose in animals
# Procedure: as §2
# [9] = total population of spleeny lymphocytes
molecule,measurement,setting,value
"CCOc1ccc(Nc2ccc(/C(=C3C=C/C(=[N+](/CC)Cc4cccc(S(=O)(=O)[O-])c4)C=C/3C)c3ccc(N(CC)Cc4cccc(S(=O)(=O)[O-])c4)cc3C)cc2)cc1.[Na+] [BBG, Brilliant Blue G]",inhibition of the effect induced by ATP 100 μM over CD4+CD25+ population,[1],only inhibits
same,inhibition of the effect of low dose PMB and ATP over CD4+CD25+ populations,[1],are inhibited
COc1ccc(CC(=O)NC(N=C(NC#N)Nc2cccc3ncccc23)C(C)(C)C)cc1OC (stereo not drawn) [A740003],inhibition of the effect induced by ATP 100 μM over CD4+CD25+ population,[1],inhibits only
Cc1nc(N=Nc2ccc(S(=O)(=O)O)cc2S(=O)(=O)O)c(COP(=O)(O)O)c(C=O)c1O [PPADS],inhibition of the effect of low dose PMB and ATP over CD4+CD25+ populations,[1],are inhibited
gramicidine,"effect over CD8 / CD4 (T helper, T cytotoxic) populations",[2],does not induce changes
same,effect over Treg (CD4+CD25+) population,[3]; [9],does not induce changes
Nc1ncnc2c1ncn2[C@@H]1O[C@H](COP(=O)(O)OP(=O)(O)OP(=O)(O)O)[C@@H](O)[C@H]1O [ATP],"death of systemic regulating T lymphocytes in spleen, drug alone",[4],does not induce the death
same,prophylaxis against the development of tumor b16,[5],induces prophylaxis
same,death of human Treg cells,[6],induces the death of Treg cells
polymyxin B [PMB],cell death in eukaryote tumor cell lines,[7],induces cell death
same,potentiation of Treg lymphocyte depletion in vivo,"[4]; after 72 hrs of in vivo exposition, PMB 150 and 350 μg/Kg with ATP 1 g/Kg",can potentiate the deplexion
same,PMB dose giving maximum depletion of Tregs lymphocytes,"[4]; at a determined ATP dose (1 g/Kg), subcutaneous, FIG. 8",0.35 mg/kg
same,dose behavior in depletion of Tregs lymphocytes,"[4]; at a determined ATP dose, FIG. 8",linear behavior
same,"death of systemic regulating T lymphocytes in spleen, drug alone",[4],does not induce the death
same,"effect over CD8 / CD4 (T helper, T cytotoxic) populations",[2]; [9],does not significantly affect; also recorded: without affecting the CD8 population neither the CD4 population
same,secondary effects over health condition and regular behavior,[8],does not demonstrate the appearance of secondary effects
same,depleting concentration relative to that used in clinical and therapeutic procedures,[3],100 times lower
same,modification of the ATP-induced effect on Treg cells,[3]; PMB at 1 μg/ml,slightly modifies the effect induced by ATP
same,modification of the ATP-induced effect on Treg cells,[3]; PMB at 10 μg/ml,produces a significant change in the response curve to ATP
same,effect over Treg (CD4+CD25+) population,[3]; [9],able to induce the death
same,PMB concentration at which PMB itself induces Treg cell depletion,"[3]; total population of spleeny lymphocytes, FIGS. 1A and 1B",≥ 1 µg/mL
same,protection of challenged animals (free of tumor),"[5]; day 20 after inoculation of tumor cells, ATP 500 μM, PMB 10 mg/mL",60%
same,protection of challenged animals (free of tumor),[5]; day 60 post inoculation,20%
same,prophylaxis against the development of tumor b16,[5],induces prophylaxis
same,increase of effectiveness of antitumor immunotherapy based on tumor cell bodies,[5]; murine melanoma model,50%
same,death of human Treg cells,[6],induces the death of Treg cells
same,dependence of Treg depletion on P2X7 receptor activation,[1]; 24 hrs culture with PPADS or BBG,partially depends on the P2X7 receptor activation
